For 10 compounds, AC50, IC50 and EC50 results are on record in ChEMBL document CHEMBL1201862, “PubChem BioAssay data set” (2004).

The source made the active and inactive calls.

The nature of assay [1]: HepG2 cell cytotoxicity, dose response, cytotoxicity control, cherry-picked samples (AID 1159577). The format is functional, cell-based.
The target of assay [2] is 1-phosphatidylinositol 4,5-bisphosphate phosphodiesterase beta-3 (Homo sapiens, UniProt Q01970). The assay can be described thus: Fluorescence-based biochemical high throughput dose response assay to identify inhibitors of phospholipase C isozymes (PLC-B3).
Assay [3] deals with Albumin (Bos taurus, UniProt P02769). The assay can be described thus: Counterscreen for inhibitors of T-cell receptor (TCR)-CD3 interaction: Fluorescence-based biochemical high throughput dose response assay to identify inhibitors of T-cell receptor (TCR)-CD3 interaction using a TAMRA-labeled BSA probe. The format is functional.
Albumin, sequence (P02769 whole entry): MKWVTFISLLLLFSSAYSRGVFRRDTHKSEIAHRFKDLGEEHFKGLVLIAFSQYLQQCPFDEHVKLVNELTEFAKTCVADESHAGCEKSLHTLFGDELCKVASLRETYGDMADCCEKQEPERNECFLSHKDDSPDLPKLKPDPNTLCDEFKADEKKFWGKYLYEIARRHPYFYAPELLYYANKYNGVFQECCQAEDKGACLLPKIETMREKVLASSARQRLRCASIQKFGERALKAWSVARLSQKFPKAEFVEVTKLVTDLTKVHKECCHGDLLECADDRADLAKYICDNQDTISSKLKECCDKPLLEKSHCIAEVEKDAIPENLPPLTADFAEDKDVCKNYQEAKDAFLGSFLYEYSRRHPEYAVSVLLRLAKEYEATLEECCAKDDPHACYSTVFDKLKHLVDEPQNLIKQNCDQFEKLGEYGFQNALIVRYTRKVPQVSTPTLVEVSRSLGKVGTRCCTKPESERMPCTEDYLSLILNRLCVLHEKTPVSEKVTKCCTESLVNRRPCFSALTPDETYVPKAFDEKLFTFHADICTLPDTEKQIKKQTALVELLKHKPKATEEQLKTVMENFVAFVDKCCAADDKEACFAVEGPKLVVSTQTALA
Assay [4] addresses 1-phosphatidylinositol 4,5-bisphosphate phosphodiesterase gamma-1 (Homo sapiens, UniProt P19174). Put plainly: Counterscreen for inhibitors of phospholipase C isozymes (PLC-B3): Fluorescence-based biochemical high throughput dose response assay to identify inhibitors of phospholipase C isozymes (PLC-gamma1).
Assay [5] has as its target Induced myeloid leukemia cell differentiation protein Mcl-1 (Homo sapiens, UniProt Q07820). The format is functional.
Assay [6] deals with 5-hydroxytryptamine receptor 2A (Mus musculus, UniProt P35363). It counts as functional, cell-based.
5-hydroxytryptamine receptor 2A, sequence (P35363 whole entry): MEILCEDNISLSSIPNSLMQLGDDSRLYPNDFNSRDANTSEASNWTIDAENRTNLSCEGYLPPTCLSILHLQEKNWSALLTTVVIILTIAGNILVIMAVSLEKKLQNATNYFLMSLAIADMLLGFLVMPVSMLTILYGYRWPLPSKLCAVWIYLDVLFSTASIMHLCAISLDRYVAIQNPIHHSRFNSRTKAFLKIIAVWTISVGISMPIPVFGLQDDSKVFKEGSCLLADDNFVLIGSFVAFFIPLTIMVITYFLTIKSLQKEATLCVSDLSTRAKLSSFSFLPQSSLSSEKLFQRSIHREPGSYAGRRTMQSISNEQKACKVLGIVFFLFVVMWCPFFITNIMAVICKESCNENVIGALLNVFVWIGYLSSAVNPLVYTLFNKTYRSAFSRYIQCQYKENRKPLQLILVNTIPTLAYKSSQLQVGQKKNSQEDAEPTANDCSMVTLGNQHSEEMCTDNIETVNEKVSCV
Assay [7] in a line: cells.
Assay [8] deals with Mu-type opioid receptor (Homo sapiens, UniProt P35372). It counts as functional, cell-based.
Mu-type opioid receptor, sequence (P35372 whole entry): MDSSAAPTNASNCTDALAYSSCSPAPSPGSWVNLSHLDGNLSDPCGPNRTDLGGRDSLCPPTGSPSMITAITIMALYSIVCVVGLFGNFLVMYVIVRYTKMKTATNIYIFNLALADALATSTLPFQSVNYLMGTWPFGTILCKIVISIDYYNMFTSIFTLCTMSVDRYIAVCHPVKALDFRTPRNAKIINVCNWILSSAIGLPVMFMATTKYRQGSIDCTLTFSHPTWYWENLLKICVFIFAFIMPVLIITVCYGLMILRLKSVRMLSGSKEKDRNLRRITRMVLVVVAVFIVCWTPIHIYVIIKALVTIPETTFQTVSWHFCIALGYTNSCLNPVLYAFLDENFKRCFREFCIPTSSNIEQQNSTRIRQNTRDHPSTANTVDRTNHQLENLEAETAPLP
Assay [9] deals with Melanocortin receptor 4 (Homo sapiens, UniProt P32245). The assay can be described thus: MC4R antagonist potency on cAMP, dose response, cell-based, TR-FRET, biased antagonists (AID 602298).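 Also: antagonist potency against agonist-stimulated cAMP production.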 It counts as functional.
Melanocortin receptor 4, sequence (P32245 whole entry): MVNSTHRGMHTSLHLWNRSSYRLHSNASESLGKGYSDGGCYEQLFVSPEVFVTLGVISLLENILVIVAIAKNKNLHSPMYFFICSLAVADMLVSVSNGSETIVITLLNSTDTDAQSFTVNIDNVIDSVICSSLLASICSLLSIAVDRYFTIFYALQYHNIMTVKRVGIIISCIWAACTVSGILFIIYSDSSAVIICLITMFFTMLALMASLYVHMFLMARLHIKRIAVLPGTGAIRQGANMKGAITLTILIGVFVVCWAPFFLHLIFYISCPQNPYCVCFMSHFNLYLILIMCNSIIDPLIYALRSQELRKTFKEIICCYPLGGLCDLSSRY
A short description of assay [10]: LGR2 antagonists, dose response, cell-based, HEK293, CRE-luciferase reporter, cherry pick, set 2 (AID 743343).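 Also: transfected cells were stimulated with diluted bursicon conditioned medium after compound addition.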 It counts as functional.
Assay [11] in a line: A549 cell cytotoxicity, dose response, cytotoxicity control, plate reader, cherry-pick, antagonist series (AID 743412). It counts as functional, cell-based.
Assay [12] is described as follows: HEK293 cell cytotoxicity, dose response, cytotoxicity control, plate reader, cherry-picked samples (AID 743446). It counts as functional, cell-based.
Assay [13] is described as follows: HepG2 cell cytotoxicity, dose response, cytotoxicity control, plate reader, cherry-pick, antagonist series (AID 743416). It counts as functional, cell-based.
Assay [14] in a line: MC4R antagonists, dose response, counter-screen for LGR2 antagonist project, cell-based, plate reader, cherry pick (AID 743444).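 Also: transfected HEK 293 cells stimulated with alpha-MSH peptide; potency of inhibitors of the alpha-MSH evoked signal.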 It counts as functional.
The nature of assay [15]: nonselective inhibitors of cellular cAMP signaling, dose response, counter-screen for MC4R biased antagonist project, cell-based, TR-FRET cAMP detection (AID 602305).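 Also: U2OS cells stimulated with forskolin near its EC80 as the cAMP inducer; potency is for inhibition of forskolin-stimulated cAMP signaling.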 The format is functional.
The nature of assay [16]: P. falciparum Dd2 growth inhibitors, dose response, SYBR Green, cherry-picked samples (AID 1159567). It counts as functional, cell-based.
The nature of assay [17]: HepG2 cell cytotoxicity, dose response, cytotoxicity control, plate reader, dry powder samples (AID 1159569).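 Also: inhibitor potency with signal falling toward the positive control level.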 The format is functional, cell-based.
Assay [18] in a line: P. falciparum ATP4 D1247Y mutant growth inhibitors, dose response, NITD609-resistant line, SYBR Green, dry powder (AID 1159571).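 Also: parasites synchronized at ring stage by sorbitol before testing.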 The format is functional, cell-based.
Assay [19] can be described thus: P. falciparum Dd2 growth inhibitors, dose response, SYBR Green, dry powder samples (AID 1159566).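 Also: potency for growth inhibition with lower SYBR green DNA signal.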 It counts as functional, cell-based.
A short description of assay [20]: P. falciparum 3D7-ScDHODH growth inhibitors, dose response, SYBR Green, dry powder samples (AID 1159570).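 Also: parasite growth measured after 72 hours of compound exposure.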 It counts as functional, cell-based.
Assay [21] addresses Disintegrin and metalloproteinase domain-containing protein 17 (Homo sapiens, UniProt P78536). The assay can be described thus: exosite inhibitors of ADAM17, dose response, biochemical (AID 743260).
Assay [22] is described as follows: ADAM10 protease inhibitors, dose response, selectivity assay for ADAM17 exosite inhibitor project, biochemical, FRET peptide substrate, recombinant human ADAM10 (AID 743259).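 Also: ADAM10 enzyme cleaving a FRET peptide substrate.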
Assay [23] deals with Metabotropic glutamate receptor 5 (Rattus norvegicus, UniProt P31424). The assay can be described thus: Identification of a glycine sulfonamide based non-MPEP site positive allosteric potentiator (PAM) of mGlu5 (calcium_assay). It counts as functional.
Metabotropic glutamate receptor 5, sequence (P31424 whole entry): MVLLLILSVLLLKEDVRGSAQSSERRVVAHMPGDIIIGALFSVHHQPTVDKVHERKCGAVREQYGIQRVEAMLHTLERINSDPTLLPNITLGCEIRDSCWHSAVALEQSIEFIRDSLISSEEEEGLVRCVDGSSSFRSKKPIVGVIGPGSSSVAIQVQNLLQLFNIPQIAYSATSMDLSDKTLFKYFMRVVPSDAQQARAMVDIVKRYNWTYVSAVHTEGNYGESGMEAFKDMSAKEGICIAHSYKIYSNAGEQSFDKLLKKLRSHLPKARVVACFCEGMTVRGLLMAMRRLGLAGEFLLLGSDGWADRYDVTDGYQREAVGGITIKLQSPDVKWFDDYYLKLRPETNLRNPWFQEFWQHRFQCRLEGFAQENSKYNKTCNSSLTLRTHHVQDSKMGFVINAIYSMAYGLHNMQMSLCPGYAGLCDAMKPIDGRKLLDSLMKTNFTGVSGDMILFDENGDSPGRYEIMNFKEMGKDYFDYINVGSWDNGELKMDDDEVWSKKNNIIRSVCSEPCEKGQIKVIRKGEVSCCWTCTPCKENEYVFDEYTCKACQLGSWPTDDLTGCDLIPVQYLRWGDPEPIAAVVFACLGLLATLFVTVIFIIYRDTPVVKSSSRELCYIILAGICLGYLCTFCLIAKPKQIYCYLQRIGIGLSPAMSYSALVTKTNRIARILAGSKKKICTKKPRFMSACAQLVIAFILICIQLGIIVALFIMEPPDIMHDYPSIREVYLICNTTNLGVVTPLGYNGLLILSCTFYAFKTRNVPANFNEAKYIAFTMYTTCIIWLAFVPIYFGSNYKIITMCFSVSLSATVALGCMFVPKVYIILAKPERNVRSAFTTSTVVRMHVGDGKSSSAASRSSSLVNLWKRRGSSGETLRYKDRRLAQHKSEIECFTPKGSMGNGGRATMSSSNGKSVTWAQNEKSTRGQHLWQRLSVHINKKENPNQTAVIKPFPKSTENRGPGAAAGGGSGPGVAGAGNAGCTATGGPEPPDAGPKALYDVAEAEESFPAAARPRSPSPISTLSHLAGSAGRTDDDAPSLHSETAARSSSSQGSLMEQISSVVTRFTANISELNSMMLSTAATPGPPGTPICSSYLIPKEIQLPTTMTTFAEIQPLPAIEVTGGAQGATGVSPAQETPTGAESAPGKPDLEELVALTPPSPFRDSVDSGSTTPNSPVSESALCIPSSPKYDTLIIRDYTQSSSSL
Assay [24] can be described thus: cells. The following applies: HEK293.
A short description of assay [25]: inhibitors of Vif binding to APOBEC3G peptide, primary screen, biochemical, TR-FRET, GST-Vif 1-94, biotin-A3G peptide, dose response retest (AID 1117319).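 Also: TR-FRET signal of purified GST-Vif binding a biotinylated A3G peptide; inhibitors lower the FRET signal by blocking Vif and A3G binding.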 It counts as functional.

Disintegrin and metalloproteinase domain-containing protein 17, sequence (P78536 whole entry, the tested form may be a part): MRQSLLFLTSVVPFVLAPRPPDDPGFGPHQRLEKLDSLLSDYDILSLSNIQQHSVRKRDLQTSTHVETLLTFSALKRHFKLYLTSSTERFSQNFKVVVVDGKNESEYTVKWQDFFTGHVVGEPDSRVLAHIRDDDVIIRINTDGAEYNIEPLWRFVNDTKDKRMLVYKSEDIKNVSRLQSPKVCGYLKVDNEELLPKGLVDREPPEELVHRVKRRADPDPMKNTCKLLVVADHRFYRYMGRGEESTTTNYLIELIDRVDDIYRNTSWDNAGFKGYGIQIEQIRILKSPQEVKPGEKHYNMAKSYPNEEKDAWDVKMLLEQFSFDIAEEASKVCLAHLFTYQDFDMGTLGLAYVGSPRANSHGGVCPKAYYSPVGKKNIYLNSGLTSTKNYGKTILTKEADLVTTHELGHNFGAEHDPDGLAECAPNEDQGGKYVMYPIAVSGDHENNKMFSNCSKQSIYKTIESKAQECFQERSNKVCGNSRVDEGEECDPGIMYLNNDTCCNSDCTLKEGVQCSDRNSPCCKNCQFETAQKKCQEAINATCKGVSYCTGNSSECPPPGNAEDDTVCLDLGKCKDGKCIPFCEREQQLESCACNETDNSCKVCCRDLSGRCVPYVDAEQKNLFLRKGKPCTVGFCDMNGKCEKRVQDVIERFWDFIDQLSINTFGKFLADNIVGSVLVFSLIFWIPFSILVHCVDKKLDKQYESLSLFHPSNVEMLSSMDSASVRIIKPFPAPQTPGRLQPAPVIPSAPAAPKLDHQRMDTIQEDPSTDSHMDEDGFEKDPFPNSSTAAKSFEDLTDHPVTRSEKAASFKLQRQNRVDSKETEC
Induced myeloid leukemia cell differentiation protein Mcl-1, sequence (Q07820 whole entry): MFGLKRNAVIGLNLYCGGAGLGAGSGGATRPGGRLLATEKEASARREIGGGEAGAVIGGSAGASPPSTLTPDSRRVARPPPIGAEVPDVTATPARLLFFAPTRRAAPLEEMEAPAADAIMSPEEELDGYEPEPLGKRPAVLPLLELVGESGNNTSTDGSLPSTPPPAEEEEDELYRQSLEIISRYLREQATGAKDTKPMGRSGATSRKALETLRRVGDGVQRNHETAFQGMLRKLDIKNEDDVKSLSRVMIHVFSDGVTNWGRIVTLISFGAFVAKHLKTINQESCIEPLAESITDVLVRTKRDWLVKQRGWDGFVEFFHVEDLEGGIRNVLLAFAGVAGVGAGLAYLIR

As for `C[C@@H]1CN([C@@H](C)CO)C(=O)Cc2cc(NC(=O)Nc3ccc4c(c3)OCO4)ccc2O[C@H]1CN(C)Cc1ccc2c(c1)OCO2`, the AC50 in [1] was > 39 µM (inactive).
For the compound `O=C1/C(=C/c2ccco2)SC(=S)N1c1cccnc1`, the IC50 in assay [2] was > 122 µM (inactive); in assay [3], > 94.1 µM (inactive); in assay [4], > 122 µM (inactive); in assay [5], 3.16 µM (not active).
Turning to `CN1CCc2c(sc(NC(=O)Cc3ccccc3)c2C#N)C1`, the EC50 in [6] was 48.2 µM (inactive); in [8], 92.5 µM (inactive). The AC50 in assay [7] is 66.1 µM (active).
For the compound `COc1ccc(CN2Cc3cnnn3-c3ccccc3C2C#N)cc1` (stereo not given), the IC50 in assay [9] is 26.3 µM (inactive); in [15], > 64.7 µM (inactive). The AC50 is 27.1 µM (active) in assay [10]; 20.6 µM (active) in assay [11]; 12.7 µM (active) in assay [12]; > 52 µM (inactive) in assay [13]; 25.8 µM (active) in assay [14].
Turning to `C[C@@H]1CN([C@@H](C)CO)C(=O)c2c(c3ccccc3n2C)-c2ccccc2CO[C@@H]1CN(C)C(=O)Nc1ccc(-c2ccccc2)cc1`, the AC50 is 1.93 µM (active) in assay [16]; > 100 µM (inactive) in [17]; 1.46 µM (active) in [18]; 1.48 µM (active) in [19]; 2.36 µM (active) in assay [20]; > 42 µM (inactive) in assay [1].
As for `COc1ccccc1NC(=O)Cn1nc(-c2ccc(Cl)cc2)c2ccccc2c1=O`, the IC50 in [21] is > 69.5 µM (inactive); in [22], 16.3 µM (inactive).
Turning to `Cc1ccc(-c2nnc(Nc3ccccc3)o2)cc1`, the half-maximal activity concentration (AC50) was 18.6 µM (active) in assay [10], > 52 µM (inactive) in assay [12], > 52 µM (inactive) in assay [13] and 25.6 µM (active) in assay [14].
For the compound `CS(=O)(=O)N(CC(=O)Nc1ccc(F)nc1)c1ccccc1Cl`, the EC50 in assay [23] is 4.4 µM.
For the compound `COC(=O)C1=CN(C)C=C(C(=O)OC)C1c1ccccc1Cl`, in assay [24], the AC50 was > 52 µM (inactive).
With `Cc1ccc(-n2c(Cc3cccn3C)nnc2SCC(=O)Nc2nnc(C)s2)cc1`, the IC50 in [25] is > 100 µM (active).
